Reference: paper PMC5085154 (2016)

What was measured:
[1] = test system: Pu27 (DNA, G4) TGGGGAGGGTGGGGAGGGTGGGGAAGG; assay: CD titration; conditions: K+ 100 mM; 10 mM Tris-HCl, pH 7.2; 5 μM DNA; 0-5 mol equiv compound
[2] = test system: FPu18T (Pu18) (DNA, G4) AGGGTGGGGAGGGTGGGG; assay: FRET melting; conditions: K+ (KCl, concentration not given); pH 7.2; Tm with ligand, "up to", not a shift; compound 2 μM (from mixing volumes), DNA 0.2 μM
[3] = test system: Pu27 (DNA, G4) TGGGGAGGGTGGGGAGGGTGGGGAAGG; assay: PCR stop assay; conditions: apparent; Taq polymerase, Pu27rev reverse primer, 10 cycles, 58°C annealing; gel densitometry
[4] = test system: Pu27 (DNA, G4) TGGGGAGGGTGGGGAGGGTGGGGAAGG; assay: CD spectroscopy; conditions: none (salt-free); 10 mM Tris-HCl, pH 7.2; 5 μM DNA; induces parallel G-quadruplex
[5] = test system: Pu27 (DNA, G4) TGGGGAGGGTGGGGAGGGTGGGGAAGG; assay: competition dialysis; conditions: Na+ 100 mM; 10 mM Tris-HCl, pH 7.2, room temperature; 1 μM compound; strongest of set; bound amount in figure
HT-7 (DNA, G4) TTAGGGT = assay: competition dialysis; conditions: Na+ 100 mM; 10 mM Tris-HCl, pH 7.2, room temperature; 1 μM compound; bound amount in figure
[6] = test system: HTG21 (DNA, G4) GGGTTAGGGTTAGGGTTAGGG; assay: competition dialysis; conditions: Na+ 100 mM; 10 mM Tris-HCl, pH 7.2, room temperature; 1 μM compound; bound amount in figure
[7] = test system: HTC21 (DNA, i motif) CCCTAACCCTAACCCTAACCC; assay: competition dialysis; conditions: Na+ 100 mM; 10 mM Tris-HCl, pH 7.2, room temperature; 1 μM compound; bound amount in figure
[8] = test system: HTds (HTC21:HTG21) (DNA, duplex) GGGTTAGGGTTAGGGTTAGGG/CCCTAACCCTAACCCTAACCC; assay: competition dialysis; conditions: Na+ 100 mM; 10 mM Tris-HCl, pH 7.2, room temperature; 1 μM compound; bound amount in figure
[9] = test system: 2(dT21):dA21 (DNA, triplex) AAAAAAAAAAAAAAAAAAAAA/TTTTTTTTTTTTTTTTTTTTT; assay: competition dialysis; conditions: Na+ 100 mM; 10 mM Tris-HCl, pH 7.2, room temperature; 1 μM compound; bound amount in figure
[10] = test system: HTG21mu (DNA, single strand) GAGTTAGAGTTAGAGTTAGAG; assay: competition dialysis; conditions: Na+ 100 mM; 10 mM Tris-HCl, pH 7.2, room temperature; 1 μM compound; bound amount in figure
[11] = test system: dT21 (DNA, single strand) TTTTTTTTTTTTTTTTTTTTT; assay: competition dialysis; conditions: Na+ 100 mM; 10 mM Tris-HCl, pH 7.2, room temperature; 1 μM compound; bound amount in figure
[12] = test system: dA21 (DNA, single strand) AAAAAAAAAAAAAAAAAAAAA; assay: competition dialysis; conditions: Na+ 100 mM; 10 mM Tris-HCl, pH 7.2, room temperature; 1 μM compound; bound amount in figure

- binding [1]: yes
- Tm [2]: 77.5 °C
- IC50 [3]: 2.13 µM
- binding [4]: yes
- binding [5]: yes
- binding (HT-7 (DNA, G4) TTAGGGT): yes
- binding [6]: yes
- binding [7]: yes
- binding [8]: weak
- binding [9]: weak
- binding [10]: weak
- binding [11]: weak
- binding [12]: weak
Compound: CN(C)CCCNCCC(=O)Nc1ccc(C(=O)Nc2cc(Cl)ccc2-c2nc(NCCCN(C)C)c3ccccc3n2)cc1
